Assay results from paper PMC4192315, “An Efficient Preparation of Mulberroside A from the Branch Bark of Mulberry and Its Effect on the Inhibition of Tyrosinase Activity” (PLoS ONE, 2014).
Entries after “also recorded” stand apart in the source; their conditions may differ. Like-named read-outs stand apart in the source and are kept apart here.

What was measured:
[1] = molecular target: monophenolase activity of the mushroom tyrosinase (Agaricus bisporus, UniProt C7FF04); test: Inhibition of monophenolase activity of mushroom tyrosinase (L-tyrosine as substrate, absorbance at 475 nm); type: biochemical; conditions: for Inhibition type: Lineweaver-Burk plots; for Inhibition mechanism: plot of V against [E]
Procedure: The measurement of the sample's inhibitory activity on monophenolase activity was based on 0.5 mmol/L L-tyrosine as the substrate. The total reaction volume was 3.0 mL, which included 2.8 mL substrate solution, 100 µL different concentrations of the sample solutions and 100 µL mushroom tyrosinase solution. The substrate and enzyme solution were dissolved in 50 mmol/L NaH2PO4-Na2HPO4 temporary buffer solution (pH 6.8), with a substrate concentration of 0.5 mmol/L and with an enzyme solution concentration of 1.0 mg/mL. The samples were dissolved in DMSO. First, 100 µL sample solution was added, then 2.8 mL substrate solution, which was pre-incubated at 30°C, was added, and last, 100 µL enzyme solution was added and immediately mixed. The curve was drawn using real-time tracking of the optical density change over time at 475 nm. The measuring instrument was a Hitachi U3000 UV-visible spectrophotometer. The enzyme activity was obtained from the slope of the line. The sample concentration-response curve was plotted as the inhibition rate of samples to the enzyme against the concentrations of effectors.
(§1) The concentration of the substrate was fixed in 3.0 mL of 50 mmol/L NaH2PO4-Na2HPO4 temporary buffer solution (pH 6.8); however, the amount of enzyme was changed to determine the effects of different concentrations of sample on the reaction of mushroom tyrosinase catalysing L-tyrosine or L-DOPA as substrates. Mapping the reaction rate in terms of the amount of enzyme determined whether the inhibition was a reversible reaction.
(§2) And the inhibition type and inhibition constant were determined as follows. The concentration of the enzyme solution was fixed in 3.0 mL of 50 mmol/L NaH2PO4-Na2HPO4 temporary buffer solution (pH 6.8); however, the amount of substrate (L-tyrosine or L-DOPA) was changed to determine the effects of different concentrations of effectors on the reaction of mushroom tyrosinase catalysing the substrate. Using the Lineweaver-Burk method, the curve was plotted as the reciprocal of the reaction rate 1/V against the reciprocal of the substrate 1/[S] to determine the type of inhibition. If the lines intersected on the y-axis, then competitive inhibition was indicated. If the lines intersected on the x-axis, then noncompetitive inhibition was indicated. If the lines intersected in the […] quadrant, then this inhibition was mixed type 1 or 2. If the lines were parallel, then anticompetitive inhibition was indicated. The inhibition constant of the effectors on tyrosinase (KI) and the inhibition constants of the enzyme-substrate complex (KIS) were obtained by a secondary plot of the concentration of the effectors against the slope of the line and the y-axis intercept, respectively.

[2] = molecular target: diphenolase activity of the mushroom tyrosinase (Agaricus bisporus, UniProt C7FF04); test: Inhibition of diphenolase activity of mushroom tyrosinase (L-DOPA as substrate, absorbance at 475 nm); type: biochemical; conditions: for Inhibition type: Lineweaver-Burk plots; for Inhibition mechanism: plot of V against [E]
Procedure: The measurement of the sample's inhibitory activity on diphenolase activity was based on 0.5 mmol/L L-DOPA as the substrate. The experimental procedure and calculations were identical to those above-mentioned procedures and calculations.
as §1, §2

mushroom tyrosinase [3] = test: Effect on the total process of dopachrome synthesis (consecutive UV-Vis spectra, oxidation of L-tyrosine by tyrosinase); type: biochemical; conditions: 2.0 µmol/L sample, 0-12 min
Procedure: The effect of tyrosinase (Worthington, USA) on the catalysis of L-tyrosine to dopachrome was determined using the method described by Hiroki, with slight modifications. The total reaction volume was 3 mL. […] The change in the absorption spectrum was determined using a Hitachi U3000 UV-visible spectrophotometer at 30°C isothermal conditions. The scanning wavelength ranged from 250 nm to 600 nm. The scanning frequency was 2 min, and the scanning time was 12 min. Thus, the changes in the absorption spectrum over time were obtained.

mushroom tyrosinase [4] = test: Effect on the enzyme-catalysed process (N-acetyl-L-tyrosine as substrate, HPLC); type: biochemical; conditions: 175.9 µmol/L sample, 0-60 min
Procedure: The effect of the enzyme-catalysed process was determined using a previously described method, with slight modifications. In total, 100 mg N-acetyl-L-tyrosine was dissolved using NaH2PO4-Na2HPO4 temporary buffer solution (pH 6.8), and the volume was set to 100 mL. In total, 0.25 mg/mL enzyme solution and a certain concentration of the sample solution were prepared. All the solutions were filtered using a syringe filter with an aperture of 0.22 µm. The components of the reaction system were as follows: 80 µL N-acetyl-L-tyrosine was mixed with 10 µL sample solution and incubated at 30°C for 5 min, and then 10 µL enzyme solution was added. During the period from 0–60 min, 20 µL mixed solution was injected into the HPLC system every 10 min to detect changes in N-acetyl-L-tyrosine. The HPLC conditions were as follows: a Shimadzu HPLC pump equipped with a Shimadzu 9082652 VP-ODS column (250 mm×4.6 mm). The detection wavelength was 275 nm. The injection volume was 10 µL, and the flow-rate was 1.0 mL/min. The mobile phases were A (water) and B (acetonitrile), which were prepared according to the following linear procedure: 0–8 min, A/B = 85:15 (v/v). All analyses were performed at room temperature.

[5] = Effect on the non-enzyme-catalysed process (redox reaction of L-DOPA and p-benzoquinone, HPLC); conditions: HPLC at 245 nm and 280 nm
Procedure: The effect of the non-enzyme-catalysed process was determined by a previously described method, with slight modifications. The HPLC conditions were as follows: a Shimadzu HPLC pump equipped with a Shimadzu VP-ODS column (250 mm×4.6 mm). The detection wavelengths were 245 nm and 280 nm. The injection volume was 20 µL, and the flow-rate was 1.0 mL/min. The mobile phases were A (0.4% aqueous acetic acid) and B (acetonitrile), which were prepared according to the following linear procedure: 0–10 min, A/B = 90:10 (v/v).

mushroom tyrosinase [6] = test: Mushroom tyrosinase inhibition (literature values); type: biochemical; conditions: monophenolase
mushroom tyrosinase [7] = conditions: cited from earlier work
tyrosinase = molecular target: tyrosinase; design: method as in PMID 22878208; conditions: read-out: IC50 of tyrosinase inhibitory activity; cited from earlier work
[8] = cited from earlier work
[9] = design: method as in PMID 8951165; conditions: rats, cited from earlier work
intestinal bacteria = conditions: cited from earlier work
[10] = MA isolated from ethanol extract of roots of Morus alba, read-out: Tyrosinase inhibitory activity

Sequence of monophenolase activity of the mushroom tyrosinase (C7FF04 1-392): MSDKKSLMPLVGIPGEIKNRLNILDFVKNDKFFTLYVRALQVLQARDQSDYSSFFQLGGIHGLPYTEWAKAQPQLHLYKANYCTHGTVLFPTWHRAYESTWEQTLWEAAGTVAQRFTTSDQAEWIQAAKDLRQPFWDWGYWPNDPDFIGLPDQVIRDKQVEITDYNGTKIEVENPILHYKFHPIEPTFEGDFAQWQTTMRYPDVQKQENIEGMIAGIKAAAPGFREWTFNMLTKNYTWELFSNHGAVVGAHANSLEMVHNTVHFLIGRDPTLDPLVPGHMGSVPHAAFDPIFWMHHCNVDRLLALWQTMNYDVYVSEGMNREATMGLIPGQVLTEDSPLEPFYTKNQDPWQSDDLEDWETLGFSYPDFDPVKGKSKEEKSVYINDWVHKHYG
Sequence of diphenolase activity of the mushroom tyrosinase (C7FF04 1-392): as above

SMILES | Inhibition type [1] | KIS (inhibition constant of the enzyme-substrate complex) [1] | Inhibition mechanism [1] | Inhibition type [2] | Inhibition mechanism [2] | Effect on formation of dopachrome (mushroom tyrosinase [3]) | Change in content of N-acetyl-L-tyrosine (mushroom tyrosinase [4]) | Effect on redox reaction of L-DOPA and p-benzoquinone (non-enzymatic process) [5] | IC50 (mushroom tyrosinase [7]; [10]) | other results
Oc1cc(O)cc(/C=C/c2ccc(O)cc2O)c1 [OR, oxyresveratrol] | mixed type 1 | 0.662 µmol/L | reversible | Non-competitive | reversible | inhibited the formation of dopachrome | did not change | not influenced | 0.49 µM | KIS (inhibition constant of the enzyme-substrate complex) ([2]; enzyme-substrate complex): 2.95 µmol/L; Difference in IC50 between literature and this paper (mushroom tyrosinase [6]; compared with ref 8): 8 fold; Difference in IC50 between literature and this paper (mushroom tyrosinase [6]; printed as lower than our experiment, compared with ref 6): approximately 4 fold; Inhibition mechanism (mushroom tyrosinase [7]; L-tyrosine as the substrate): reversibly inhibited; Inhibition type (mushroom tyrosinase [7]; L-tyrosine as the substrate): non-competitive; IC50 (mushroom tyrosinase [7]; depending on the assay conditions, read-out: IC50): 0.46 to 1.1 µM
OC[C@H]1O[C@@H](Oc2cc(O)cc(/C=C/c3ccc(O[C@@H]4O[C@H](CO)[C@@H](O)[C@H](O)[C@H]4O)cc3O)c2)[C@H](O)[C@@H](O)[C@@H]1O [MA, oxyresveratrol-4-O-β-D-glucopyranosyl-3′-O-β-D-glucopyranoside] | mixed type 1 | 0.177 µmol/L | reversible | competitive | reversible | inhibited the formation of dopachrome | did not change | not influenced; also recorded: no effect | 53.6 µM | IC50 (tyrosinase): 42.1 µM; Inhibition type (mushroom tyrosinase [7]; L-tyrosine and L-DOPA as substrates): competitive; Permeability [8]: poor permeability; Bioavailability ([9]; oral administration of mulberry root acetone extract): approximately 1%; Absorption rate ([9]; oral, most MA transformed to OR and transferred into circulating blood, estimated): 50%; Metabolism by intestinal bacteria (intestinal bacteria): rapidly deglucosylated and transformed into OR
